Experimental data from patent US20230041563A1, “N-(1,3,4-OXADIAZOL-2-YL)ARYLCARBOXAMIDES OR SALTS THEREOF, PREPARATION METHODS, HERBICIDAL COMPOSITIONS AND USES THEREOF” (priority 2018, published 2023).

How the values were obtained:
Assay type in all cases: in vivo
[1] = system: rice and Echinochloa crusgali; experiment: Herbicide selection index between rice and Echinochloa crusgali; conditions: average dose causing 10% phytotoxicity to rice divided by average dose causing 90% control efficiency to Echinochloa crusgali
[2] = system: Japonica rice (Huaidao No. 5); experiment: Safety test of control experiments on rice; conditions: Dose 125 g a.i./ha
Description: (§1) The activity level criteria for plant damage (i.e., growth control rate) are as follows: Comparative Experiments: [table]

[3] = system: Indica rice (Huanghuazhan); experiment: Safety test of control experiments on rice; conditions: Dose 125 g a.i./ha
Description: as §1

Digitaria sanguinalis = experiment: Weeding effect in post-emergence stage (greenhouse pot spray)
Procedure, shortened: (§2)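 Greenhouse pot plants at the 2–3 leaf stage (2 weeks after sowing) were sprayed with compound in acetone with Tween 80 and methyl oleate EC synergist (1.5 L/ha) at 500, 250, 125, 60 or 15 g a.i./ha. Fresh-weight growth control was scored 3 weeks later, averaged over three replicates.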

Abutilon theophrasti = experiment: as above
Procedure, shortened: as §2

Setaria viridis = experiment: as above
Procedure, shortened: as §2

Echinochloa crusgalli = experiment: as above
Procedure, shortened: as §2

Stellaria media = experiment: as above
Description: (§3) The activity level criteria for plant damage (i.e., growth control rate) are as follows:
(§4) The above growth control rates are fresh weight control rates.
(§5) Experiment on weeding effect in post-emergence stage: monocotyledonous and dicotyledonous weed seeds (Descurainia sophia, Capsella bursa-pastoris, Abutilon theophrasti, Galium aparine, Stellaria media, Lithospermum arvense, rorippa indica, Alopecurus aequalis, Beckmannia syzigachne, Sclerochloa dura, Phleum paniculatum, Bromus japonicus, Aegilops tauschii, Phalaris arundinacea, Amaranthus retroflexus, Chenopodiaceae, Commelina communis, Sonchus arvensis, convolvulus arvensis, Cirsium setosum, Solanum nigrum, Acalypha australis, Digitaria sanguinalis, Echinochloa crusgalli, Setaria viridis, Setaria glauca, Leptochloa chinensis, Monochoria vaginalis, Sagittaria trifolia, Scirpus juncoides, Cyperus rotundus, Cyperus iria, Cyperus difformis, Fimbristylis, Portulaca oleracea, Xanthium sibiricum, Pharbitis nil) and major crop seeds (wheat, corn, rice, soybean, cotton, oilseed rape, millet, sorghum, potato, sesame, ricinus) were placed in plastic pots filled with soil, then covered with 0.5-2 cm of soil, allowed to grow in a good greenhouse environment. After 2 weeks of sowing, the test plants were treated in the 2 to 3 leaf stage. The tested compounds of the present invention were respectively dissolved in acetone, then added with Tween 80 and 1.5 liter/ha of emulsifiable concentrate of methyl oleate as synergist, diluted with a certain amount of water to obtain a solution with a certain concentration, and sprayed with a spray tower onto the plants. After the application, the plants were cultured for 3 weeks in the greenhouse, and then the experimental results of the weeding were counted. The doses of the used compounds were 500, 250, 125, 60, 15 g a.i./ha, and the averages were obtained by repeating for three times.

Amaranthus retroflexus = experiment: as above
Description: as §3, §4, §5

weeds = experiment: Actual control effects and combined effects of mixtures of active ingredients (i) and (ii), stem-leaf treatment, Gowing method; conditions: stem-leaf treatment, 20 days

## Cc1nnc(NC(=O)c2ccc(C(F)(F)F)c(N3CCCC3=O)c2Cl)o1 [Control Compound C, reference compound]
[1]
  Selection index between rice and Echinochloa crusgali: 1.1
[2]
  Japonica rice (Huaidao No. 5) (plant damage level): 4 (Level 4: growth control rate is greater than or equal to 60% and less than 85%)
[3]
  Indica rice (Huanghuazhan) (plant damage level): 5 (Level 5: growth control rate is above 85%)

## CSc1c(C(F)(F)F)ccc(C(=O)Nc2nnc(C)o2)c1F [Compound 1-1]
Digitaria sanguinalis; Table 2, dose 60 g a.i./ha
  Digitaria sanguinalis (activity level): 1 (Level 1: growth control rate is greater than or equal to 5% and less than 20%)
Digitaria sanguinalis; Table 2, dose 125 g a.i./ha
  Digitaria sanguinalis (activity level): 2 (Level 2: growth control rate is greater than or equal to 20% and less than 40%)
Digitaria sanguinalis; Table 2, dose 250 g a.i./ha
  Digitaria sanguinalis (activity level): 3 (Level 3: growth control rate is greater than or equal to 40% and less than 60%)
Digitaria sanguinalis; Table 2, dose 500 g a.i./ha
  Digitaria sanguinalis (activity level): 4 (Level 4: growth control rate is greater than or equal to 60% and less than 85%)
Digitaria sanguinalis; Table 3, dose 7.5 g a.i./ha
  Digitaria sanguinahs (activity level): 0 (Level 0: growth control rate is less than 5%)
Digitaria sanguinalis; Table 3, dose 15 g a.i./ha
  Digitaria sanguinahs (activity level): 0 (Level 0: growth control rate is less than 5%)
Digitaria sanguinalis; Table 3, dose 30 g a.i./ha
  Digitaria sanguinahs (activity level): 1 (Level 1: growth control rate is greater than or equal to 5% and less than 20%)
Digitaria sanguinalis; Table 3, dose 60 g a.i./ha
  Digitaria sanguinahs (activity level): 1 (Level 1: growth control rate is greater than or equal to 5% and less than 20%)
Digitaria sanguinalis; Table 3, dose 120 g a.i./ha
  Digitaria sanguinahs (activity level): 2 (Level 2: growth control rate is greater than or equal to 20% and less than 40%)
Abutilon theophrasti; Table 2, dose 60 g a.i./ha
  Abutilion theophrasti (activity level): 2 (Level 2: growth control rate is greater than or equal to 20% and less than 40%)
Abutilon theophrasti; Table 2, dose 125 g a.i./ha
  Abutilion theophrasti (activity level): 4 (Level 4: growth control rate is greater than or equal to 60% and less than 85%)
Abutilon theophrasti; Table 2, dose 250 g a.i./ha
  Abutilion theophrasti (activity level): 4 (Level 4: growth control rate is greater than or equal to 60% and less than 85%)
Abutilon theophrasti; Table 2, dose 500 g a.i./ha
  Abutilion theophrasti (activity level): 4 (Level 4: growth control rate is greater than or equal to 60% and less than 85%)
Abutilon theophrasti; Table 3, dose 60 g a.i./ha
  Abutilon theophrasti (activity level): 2 (Level 2: growth control rate is greater than or equal to 20% and less than 40%)
Abutilon theophrasti; Table 3, dose 120 g a.i./ha
  Abutilon theophrasti (activity level): 4 (Level 4: growth control rate is greater than or equal to 60% and less than 85%)
Setaria viridis; Table 3, dose 7.5 g a.i./ha
  Setaria viridis (activity level): 0 (Level 0: growth control rate is less than 5%)
Setaria viridis; Table 3, dose 15 g a.i./ha
  Setaria viridis (activity level): 0 (Level 0: growth control rate is less than 5%)
Setaria viridis; Table 3, dose 30 g a.i./ha
  Setaria viridis (activity level): 1 (Level 1: growth control rate is greater than or equal to 5% and less than 20%)
Setaria viridis; Table 3, dose 60 g a.i./ha
  Setaria viridis (activity level): 1 (Level 1: growth control rate is greater than or equal to 5% and less than 20%)
Setaria viridis; Table 3, dose 120 g a.i./ha
  Setaria viridis (activity level): 2 (Level 2: growth control rate is greater than or equal to 20% and less than 40%)
Echinochloa crusgalli; Table 2, dose 60 g a.i./ha
  Echinochloa crusgah (activity level): 2 (Level 2: growth control rate is greater than or equal to 20% and less than 40%)
Echinochloa crusgalli; Table 2, dose 125 g a.i./ha
  Echinochloa crusgah (activity level): 4 (Level 4: growth control rate is greater than or equal to 60% and less than 85%)
Echinochloa crusgalli; Table 2, dose 250 g a.i./ha
  Echinochloa crusgah (activity level): 4 (Level 4: growth control rate is greater than or equal to 60% and less than 85%)
Echinochloa crusgalli; Table 2, dose 500 g a.i./ha
  Echinochloa crusgah (activity level): 4 (Level 4: growth control rate is greater than or equal to 60% and less than 85%)
Echinochloa crusgalli; Table 3, dose 7.5 g a.i./ha
  Echinochloa crusgali (activity level): 0 (Level 0: growth control rate is less than 5%)
Echinochloa crusgalli; Table 3, dose 15 g a.i./ha
  Echinochloa crusgali (activity level): 1 (Level 1: growth control rate is greater than or equal to 5% and less than 20%)
Echinochloa crusgalli; Table 3, dose 30 g a.i./ha
  Echinochloa crusgali (activity level): 2 (Level 2: growth control rate is greater than or equal to 20% and less than 40%)
Echinochloa crusgalli; Table 3, dose 60 g a.i./ha
  Echinochloa crusgali (activity level): 2 (Level 2: growth control rate is greater than or equal to 20% and less than 40%)
Stellaria media; Table 2, dose 60 g a.i./ha
  Stellaria media (activity level): 3 (Level 3: growth control rate is greater than or equal to 40% and less than 60%)
Stellaria media; Table 2, dose 125 g a.i./ha
  Stellaria media (activity level): 4 (Level 4: growth control rate is greater than or equal to 60% and less than 85%)
Stellaria media; Table 2, dose 250 g a.i./ha
  Stellaria media (activity level): 4 (Level 4: growth control rate is greater than or equal to 60% and less than 85%)
Stellaria media; Table 2, dose 500 g a.i./ha
  Stellaria media (activity level): 4 (Level 4: growth control rate is greater than or equal to 60% and less than 85%)
Amaranthus retroflexus; Table 2, dose 60 g a.i./ha
  Amaranthus retroflexus (activity level): 4 (Level 4: growth control rate is greater than or equal to 60% and less than 85%)
Amaranthus retroflexus; Table 2, dose 125 g a.i./ha
  Amaranthus retroflexus (activity level): 4 (Level 4: growth control rate is greater than or equal to 60% and less than 85%)
Amaranthus retroflexus; Table 2, dose 250 g a.i./ha
  Amaranthus retroflexus (activity level): 4 (Level 4: growth control rate is greater than or equal to 60% and less than 85%)
Amaranthus retroflexus; Table 2, dose 500 g a.i./ha
  Amaranthus retroflexus (activity level): 4 (Level 4: growth control rate is greater than or equal to 60% and less than 85%)
weeds; Cyperus difformis, (i) 1 g a.i./mu
  Control effect of (i) alone at corresponding dose: 6.2%
weeds; Cyperus difformis, (i) 5 g a.i./mu
  Control effect of (i) alone at corresponding dose: 30.6%
weeds; Echinochloa phyllopogon, (i) 1 g a.i./mu
  Control effect of (i) alone at corresponding dose: 8.3%
weeds; Echinochloa phyllopogon, (i) 2 g a.i./mu
  Control effect of (i) alone at corresponding dose: 18.7%
weeds; Echinochloa phyllopogon, (i) 3 g a.i./mu
  Control effect of (i) alone at corresponding dose: 43.1%
weeds; Leptochloa chinensis, (i) 5 g a.i./mu
  Control effect of (i) alone at corresponding dose: 3.8%
weeds; Leptochloa chinensis, (i) 15 g a.i./mu
  Control effect of (i) alone at corresponding dose: 20.3%
weeds; Monochoria vaginalis, (i) 5 g a.i./mu
  Control effect of (i) alone at corresponding dose: 9.6%
weeds; Monochoria vaginalis, (i) 6 g a.i./mu
  Control effect of (i) alone at corresponding dose: 12.3%
weeds; Monochoria vaginalis, (i) 7.5 g a.i./mu
  Control effect of (i) alone at corresponding dose: 15.1%
weeds; Monochoria vaginalis, (i) 15 g a.i./mu
  Control effect of (i) alone at corresponding dose: 23.9%
weeds; Sagittaria trifolia, (i) 1 g a.i./mu
  Control effect of (i) alone at corresponding dose: 10.9%
weeds; Sagittaria trifolia, (i) 5 g a.i./mu
  Control effect of (i) alone at corresponding dose: 33.5%

## CCSc1c(C(F)(F)F)ccc(C(=O)Nc2nnco2)c1F [Compound 3-4]
Digitaria sanguinalis; Table 2, dose 500 g a.i./ha
  Digitaria sanguinalis (activity level): 5 (Level 5: growth control rate is above 85%)
Digitaria sanguinalis; Table 3, dose 250 g a.i./ha
  Digitaria sanguinahs (activity level): 5 (Level 5: growth control rate is above 85%)
Abutilon theophrasti; Table 2, dose 500 g a.i./ha
  Abutilion theophrasti (activity level): 5 (Level 5: growth control rate is above 85%)
Setaria viridis; Table 3, dose 250 g a.i./ha
  Setaria viridis (activity level): 5 (Level 5: growth control rate is above 85%)
Echinochloa crusgalli; Table 2, dose 500 g a.i./ha
  Echinochloa crusgah (activity level): 5 (Level 5: growth control rate is above 85%)
Echinochloa crusgalli; Table 3, dose 250 g a.i./ha
  Echinochloa crusgali (activity level): 5 (Level 5: growth control rate is above 85%)
Stellaria media; Table 2, dose 500 g a.i./ha
  Stellaria media (activity level): 5 (Level 5: growth control rate is above 85%)
Amaranthus retroflexus; Table 2, dose 500 g a.i./ha
  Amaranthus retroflexus (activity level): 5 (Level 5: growth control rate is above 85%)
